Data taken from patent publication US6737383B1, “Herbicidal oxadiazolidines” (priority 1999, dated 2004).

Assays:
pigweed = assay: Test B pre/postemergence pigweed; format: in vivo, Amaranthus retroflexus
Method in brief: (§1)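 Test chemicals in a non-phytotoxic solvent mixture with surfactant were sprayed preemergence onto planted seeds and postemergence onto plants 2 to 18 cm tall (1- to 4-leaf stage). After twelve to sixteen days in a greenhouse, injury was visually rated against untreated controls from 0 (no effect) to 10 (complete control).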

morningglory = assay: Test B pre/postemergence morningglory; format: in vivo, Ipomoea hederacea
Method in brief: as §1

wild oat = assay: Test B pre/postemergence wild oat; format: in vivo, Avena fatua
Method in brief: as §1

velvetleaf = assay: Test B pre/postemergence velvetleaf; format: in vivo, Abutilon theophrasti
Method in brief: as §1

soybean = assay: Test B pre/postemergence soybean; format: in vivo, Glycine max
Method in brief: as §1

sugar beet = assay: Test B pre/postemergence sugar beet; format: in vivo, Beta vulgaris
Method in brief: as §1

surinam grass = assay: Test B pre/postemergence surinam grass; format: in vivo, Brachiaria decumbens
Method in brief: as §1

smallflower flatsedge = assay: Test B flood test smallflower flatsedge; format: in vivo, Cyperus difformis
Method in brief: (§2)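 Flood test on plants grown to the 2-leaf stage; treated plants kept in greenhouse twelve to sixteen days, then visually rated against controls on a 0 (no effect) to 10 (complete control) scale.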

rape = assay: Test B pre/postemergence rape; format: in vivo, Brassica napus
Method in brief: as §1

bamyardgrass = assay: Test B flood test barnyardgrass; format: in vivo, Echinochloa crus-galli
Method in brief: as §2

giant foxtail = assay: Test B pre/postemergence giant foxtail; format: in vivo, Setaria faberii
Method in brief: as §1

cocklebur = assay: Test B pre/postemergence cocklebur; format: in vivo, Xanthium strumarium
Method in brief: as §1

corn = assay: Test B pre/postemergence corn; format: in vivo, Zea mays
Method in brief: as §1

duck salad = assay: Test B flood test duck salad; format: in vivo, Heteranthera limosa
Method in brief: as §2

rice = assay: Test B flood test rice; format: in vivo, Oryza sativa
Method in brief: as §2

purple nutsedge = assay: Test B pre/postemergence purple nutsedge; format: in vivo, Cyperus rotundus
Method in brief: as §1

wheat = assay: Test B pre/postemergence wheat; format: in vivo, Triticum aestivum
Method in brief: as §1

crabgrass = assay: Test B pre/postemergence crabgrass; format: in vivo, Digitaria sanguinalis
Method in brief: as §1

blackgrass = assay: Test B pre/postemergence blackgrass; format: in vivo, Alopecurus myosuroides
Method in brief: as §1

bedstraw = assay: Test B pre/postemergence bedstraw; format: in vivo, Galium aparine; settings: Preemergence
Method in brief: as §1

[1] = Postemergence, Rate 125 g/ha, scale of 0 to 10 where 0 is no effect and 10 is complete control
[2] = Postemergence, Rate 250 g/ha, scale of 0 to 10, 0 is no effect, 10 is complete control
[3] = Postemergence, Rate 500 g/ha, scale of 0 to 10 where 0 is no effect and 10 is complete control
[4] = Preemergence, Rate 62 g/ha, scale 0 to 10 (0 no effect, 10 complete control)
[5] = Preemergence, Rate 125 g/ha, scale of 0 to 10 where 0 is no effect and 10 is complete control
[6] = Preemergence, Rate 500 g/ha, scale of 0 to 10 where 0 is no effect and 10 is complete control
[7] = Postemergence, Rate 62 g/ha, scale of 0 to 10, 0 is no effect, 10 is complete control
[8] = Rate 62 g/ha, flood test species, Pre-emergence, visual evaluation after twelve to sixteen days
[9] = Rate 125 g/ha, under heading Pre-emergence, flood test species, visual evaluation after twelve to sixteen days
[10] = Rate 250 g/ha, Pre-emergence (flood test species), scale 0 to 10, 0 is no effect, 10 is complete control
[11] = Rate 500 g/ha, Pre-emergence section of Table B, 0 to 10 scale (0 no effect, 10 complete control)

COC(C)n1c(=O)on(C(=O)N(c2ccc(Cl)cc2)C(C)C)c1=O (stereo not shown) [Compound 592]
2: Morningglory plant response rating (morningglory; [2]) | Plant response rating, Morningglory (morningglory; [3]) | Plant response rating, Crabgrass (crabgrass; [3]) | Plant response rating, Crabgrass (crabgrass; [6])
0: Plant response rating, Redroot pigweed (pigweed; [1]) | Redroot pigweed plant response rating (pigweed; [2]) | Plant response rating, Redroot pigweed (pigweed; [3]) | Redroot pigweed plant response rating (pigweed; [4]) | Redroot pigweed plant response rating (pigweed; [5]) | Plant response rating, Redroot pigweed (pigweed; [6]) | Morningglory plant response rating (morningglory; [4]) | Morningglory plant response rating (morningglory; [5]) | Plant response rating, Morningglory (morningglory; [6]) | Plant response rating, Wild oats (wild oat; [1]) | Wild oats plant response rating (wild oat; [2]) | Plant response rating, Wild oats (wild oat; [3]) | Wild oats plant response rating (wild oat; [4]) | Wild oats plant response rating (wild oat; [5]) | Plant response rating, Wild oats (wild oat; [6]) | Plant response rating, Velvetleaf (velvetleaf; [1]) | Velvetleaf plant response rating (velvetleaf; [2]) | Plant response rating, Velvetleaf (velvetleaf; [3]) | Velvetleaf plant response rating (velvetleaf; [4]) | Velvetleaf plant response rating (velvetleaf; [5]) | Plant response rating, Velvetleaf (velvetleaf; [6]) | Soybean plant response rating (soybean; [4]) | Soybean plant response rating (soybean; [5]) | Plant response rating, Soybean (soybean; [6]) | Plant response rating, Sugarbeets (sugar beet; [1]) | Sugarbeets plant response rating (sugar beet; [2]) | Plant response rating, Sugarbeets (sugar beet; [3]) | Sugarbeets plant response rating (sugar beet; [4]) | Sugarbeets plant response rating (sugar beet; [5]) | Plant response rating, Sugarbeets (sugar beet; [6]) | B. signalgrass plant response rating (surinam grass; [7]) | Plant response rating, B. signalgrass (surinam grass; [1]) | B. signalgrass plant response rating (surinam grass; [2]) | Plant response rating, B. signalgrass (surinam grass; [3]) | B. signalgrass plant response rating (surinam grass; [4]) | B. signalgrass plant response rating (surinam grass; [5]) | B. signalgrass plant response rating (0 to 10 scale, 0 is no effect, 10 is complete control) (surinam grass; Preemergence, Rate 250 g/ha) | B. signalgrass plant response rating (surinam grass; [6]) | Plant response rating, S. Flatsedge (0 to 10 scale, 0 is no effect, 10 is complete control) (smallflower flatsedge; [8]) | S. Flatsedge plant response rating (0 to 10 scale, 0 is no effect, 10 is complete control) (smallflower flatsedge; [9]) | S. Flatsedge plant response rating (smallflower flatsedge; [10]) | S. Flatsedge plant response rating (smallflower flatsedge; [11]) | Rape plant response rating (rape; [7]) | Plant response rating, Rape (rape; [1]) | Rape plant response rating (rape; [2]) | Plant response rating, Rape (rape; [3]) | Rape plant response rating (rape; [4]) | Rape plant response rating (rape; [5]) | Plant response rating, Rape (rape; [6]) | Plant response rating, Barnyardgrass (0 to 10 scale, 0 is no effect, 10 is complete control) (bamyardgrass; [8]) | Barnyardgrass plant response rating (0 to 10 scale, 0 is no effect, 10 is complete control) (bamyardgrass; [9]) | Barnyardgrass plant response rating (bamyardgrass; [10]) | Barnyardgrass plant response rating (bamyardgrass; [11]) | Giant foxtail plant response rating (giant foxtail; [7]) | Plant response rating, Giant foxtail (giant foxtail; [1]) | Giant foxtail plant response rating (giant foxtail; [2]) | Plant response rating, Giant foxtail (giant foxtail; [3]) | Giant foxtail plant response rating (giant foxtail; [4]) | Giant foxtail plant response rating (giant foxtail; [5]) | Plant response rating, Giant foxtail (giant foxtail; [6]) | Cocklebur plant response rating (cocklebur; [7]) | Plant response rating, Cocklebur (cocklebur; [1]) | Cocklebur plant response rating (cocklebur; [2]) | Plant response rating, Cocklebur (cocklebur; [3]) | Cocklebur plant response rating (cocklebur; [4]) | Cocklebur plant response rating (cocklebur; [5]) | Cocklebur plant response rating (0 to 10 scale) (cocklebur; Preemergence, Rate 250 g/ha) | Plant response rating, Cocklebur (cocklebur; [6]) | Corn plant response rating (corn; [7]) | Plant response rating, Corn (corn; [1]) | Corn plant response rating (corn; [2]) | Plant response rating, Corn (corn; [3]) | Corn plant response rating (corn; [4]) | Corn plant response rating (corn; [5]) | Corn plant response rating (0 to 10 scale) (corn; Preemergence, Rate 250 g/ha) | Plant response rating, Corn (corn; [6]) | Plant response rating, Ducksalad (0 to 10 scale, 0 is no effect, 10 is complete control) (duck salad; [8]) | Ducksalad plant response rating (0 to 10 scale, 0 is no effect, 10 is complete control) (duck salad; [9]) | Ducksalad plant response rating (duck salad; [10]) | Ducksalad plant response rating (duck salad; [11]) | Plant response rating, Rice (0 to 10 scale, 0 is no effect, 10 is complete control) (rice; [8]) | Rice plant response rating (0 to 10 scale, 0 is no effect, 10 is complete control) (rice; [9]) | Rice plant response rating (rice; [10]) | Rice plant response rating (rice; [11]) | Nutsedge plant response rating (purple nutsedge; [7]) | Plant response rating, Nutsedge (purple nutsedge; [1]) | Nutsedge plant response rating (purple nutsedge; [2]) | Plant response rating, Nutsedge (purple nutsedge; [3]) | Nutsedge plant response rating (purple nutsedge; [4]) | Nutsedge plant response rating (purple nutsedge; [5]) | Plant response rating, Nutsedge (purple nutsedge; [6]) | Plant response rating, Wheat (wheat; [1]) | Wheat plant response rating (wheat; [2]) | Plant response rating, Wheat (wheat; [3]) | Wheat plant response rating (wheat; [4]) | Wheat plant response rating (wheat; [5]) | Plant response rating, Wheat (wheat; [6]) | Crabgrass plant response rating (crabgrass; [7]) | Plant response rating, Crabgrass (crabgrass; [1]) | Crabgrass plant response rating (crabgrass; [2]) | Crabgrass plant response rating (crabgrass; [4]) | Crabgrass plant response rating (crabgrass; [5]) | Blackgrass plant response rating (blackgrass; [7]) | Plant response rating, Blackgrass (blackgrass; [1]) | Blackgrass plant response rating (blackgrass; [2]) | Plant response rating, Blackgrass (blackgrass; [3]) | Blackgrass plant response rating (blackgrass; [4]) | Blackgrass plant response rating (blackgrass; [5]) | Blackgrass plant response rating (0 to 10 scale) (blackgrass; Preemergence, Rate 250 g/ha) | Blackgrass plant response rating (blackgrass; [6]) | Bedstraw plant response rating (bedstraw; Rate 62 g/ha, scale 0 to 10 (0 no effect, 10 complete control)) | Bedstraw plant response rating (bedstraw; Rate 125 g/ha, scale of 0 to 10 where 0 is no effect and 10 is complete control)
1: Morningglory plant response rating (morningglory; [7]) | Plant response rating, Morningglory (morningglory; [1]) | Plant response rating, Soybean (soybean; [1]) | Soybean plant response rating (soybean; [2]) | Plant response rating, Soybean (soybean; [3])
